According to patent US20090131470A1, “PYRAZOLE-SUBSTITUTED BENZIMIDAZOLE DERIVATIVES FOR USE IN THE TREATMENT OF CANCER AND AUTOIMMUNE DISORDERS” (priority 2005, published 2009):

How the values were obtained:
Format in all cases: biochemical
GST-Chk1 enzyme = target: T1, GST-Chk1 enzyme (Homo sapiens, UniProt O14757); assay: Chk1 kinase assay (33P Chktide phosphorylation); settings: 0.01 mM ATP, 40 minutes at 30° C.; read-out: CHK-1 IC50
T1 sequence (O14757 1-476): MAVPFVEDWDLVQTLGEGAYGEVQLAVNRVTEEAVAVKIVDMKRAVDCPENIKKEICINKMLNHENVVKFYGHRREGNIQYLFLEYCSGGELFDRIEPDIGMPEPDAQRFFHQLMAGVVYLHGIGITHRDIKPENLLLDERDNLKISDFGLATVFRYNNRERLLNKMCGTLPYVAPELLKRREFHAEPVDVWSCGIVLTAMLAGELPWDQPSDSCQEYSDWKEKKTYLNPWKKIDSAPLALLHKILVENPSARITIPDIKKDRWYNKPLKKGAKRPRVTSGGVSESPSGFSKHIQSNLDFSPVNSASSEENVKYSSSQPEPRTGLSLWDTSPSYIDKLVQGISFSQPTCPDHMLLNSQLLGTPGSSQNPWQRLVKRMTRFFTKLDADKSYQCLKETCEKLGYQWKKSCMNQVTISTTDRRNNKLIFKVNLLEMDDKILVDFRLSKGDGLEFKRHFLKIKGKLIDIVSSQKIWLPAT
Procedure: The assay mixture containing the inhibitor and Chk1 enzyme was mixed together in a microtiter plate in a final volume of 50 μl and incubated for 40 minutes at 30° C. […] The reaction was stopped by adding 50 μl of 50 mM phosphoric acid. 90 μl of the mixture was transferred to a pre-wetted 96-well multi-screen MAPHNOB filtration plate (Millipore) and filtered on a vacuum manifold. The filter plate was washed with 3 successive additions of 200 μl 50 mM phosphoric acid and then with 100 μl methanol. The filtration plate was dried for 10 min at 65° C., scintillant added and phosphorylated peptide quantified in a scintillation counter (Trilux, PerkinElmer)

[1] = target: CDK-2 enzyme, complexed with cyclin A (Homo sapiens, UniProt P24941); assay: CDK2 kinase assay (33P peptide phosphorylation); settings: 0.1 mM ATP, cyclin A complex
Procedure: (§1) The assay mixture containing the inhibitor and CDK-2 enzyme, complexed with cyclin A (0.4 U/ml) was mixed together in a microtiter plate in a final volume of 50 μl and incubated for 40 min at 30° C. The assay mixture contained 0.1 mM unlabeled ATP, 0.01 μCi/μl ^33P-γ-ATP, 0.03 mM peptide, 0.1 mg/ml BSA, 7.5 mM magnesium acetate, 50 mM HEPES-NaOH, pH 7.5. The reaction was stopped by adding 50 μl of 50 mM phosphoric acid. 90 μl of the mixture were transferred to a pre-wetted 96-well Multiscreen MAPHNOB filtration plate (Millipore) and filtered on a vacuum manifold. The filter plate was washed with 3 successive additions of 200 μl 50 mM phosphoric acid and then with 100 μl methanol. The filtration plate was dried for 10 min at 65° C., scintillant added and phosphorylated peptide quantified in a scintillation counter (Trilux, PerkinElmer)

PDK1 = target: T2, PDK1 (Homo sapiens, UniProt O15530); assay: PDK1 kinase assay (33P peptide phosphorylation); settings: 0.01 mM ATP, 60 min at 30° C.; read-out: PDK-1 IC50
T2 sequence (O15530 1-556): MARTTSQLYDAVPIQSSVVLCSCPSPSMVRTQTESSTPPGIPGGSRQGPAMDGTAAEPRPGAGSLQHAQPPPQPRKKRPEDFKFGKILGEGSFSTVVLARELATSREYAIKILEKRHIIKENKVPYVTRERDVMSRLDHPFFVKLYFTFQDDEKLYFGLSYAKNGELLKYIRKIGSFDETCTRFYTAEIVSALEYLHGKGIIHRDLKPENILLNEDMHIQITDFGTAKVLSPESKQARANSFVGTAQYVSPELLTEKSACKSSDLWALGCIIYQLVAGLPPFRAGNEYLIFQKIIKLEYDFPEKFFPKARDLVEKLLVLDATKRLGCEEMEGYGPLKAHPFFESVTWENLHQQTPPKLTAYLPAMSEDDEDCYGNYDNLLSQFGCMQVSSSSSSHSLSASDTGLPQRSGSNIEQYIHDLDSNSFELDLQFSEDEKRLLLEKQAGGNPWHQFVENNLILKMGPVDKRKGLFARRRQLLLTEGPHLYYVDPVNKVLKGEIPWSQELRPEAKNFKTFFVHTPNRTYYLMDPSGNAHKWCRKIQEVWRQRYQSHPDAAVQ
Procedure: as §1, with “and PDK1 enzyme” for “and CDK-2 enzyme, complexed with cyclin A (0.4 U/ml)”, “for 60” for “for 40”, “contained 0.01” for “contained 0.1”, “^33P-γ-ATP, 0.075” for “^33P-γ-ATP, 0.03”, “acetate, 0.05M Tris.HCl,” for “acetate, 50 mM HEPES-NaOH,”, “pH 7.5, 0.5% 2-mercaptoethanol.” for “pH 7.5.”

Akt1 = target: T3, Akt1 (Homo sapiens, UniProt P31749); assay: Akt1 kinase assay (Histone H1 substrate); settings: 200 μM ATP, read-out: AKT-1 IC50
T3 construct: purchased Upstate
Procedure: Assays for the cyclin dependent kinase activity were carried out by monitoring the phosphorylation of a synthetic peptide, HATTPKKKRK. The assay mixture containing the inhibitor and CDK-2 enzyme, complexed with cyclin A (0.4 U/ml) was mixed together in a microtiter plate in a final volume of 50 μl and incubated for 40 min at 30° C. The assay mixture contained 0.1 mM unlabeled ATP, 0.01 μCi/μl ^33P-γ-ATP, 0.03 mM peptide, 0.1 mg/ml BSA, 7.5 mM magnesium acetate, 50 mM HEPES-NaOH, pH 7.5. The reaction was stopped by adding 50 μl of 50 mM phosphoric acid. 90 μl of the mixture were transferred to a pre-wetted 96-well Multiscreen MAPHNOB filtration plate (Millipore) and filtered on a vacuum manifold. The filter plate was washed with 3 successive additions of 200 μl 50 mM phosphoric acid and then with 100 μl methanol. The filtration plate was dried for 10 min at 65° C., scintillant added and phosphorylated peptide quantified in a scintillation counter (Trilux, PerkinElmer)
Protocol for the Akt assay is the same for CDK2 except that, 3 nM Akt1 (Upstate) was used with Histone H1 as substrate with a final ATP concentration of 200 μM. The reaction was incubated at 30° C. for 40 minutes.

PKA = target: T4, PKA (Homo sapiens, UniProt P17612); assay: PKA kinase assay (Kemptide substrate); settings: 100 μM ATP
T4 construct: purchased Upstate
Procedure: as §1
The PKA assay was incubated at 30° C. for 30 minutes.

T3 sequence (P31749 whole entry, species assumed): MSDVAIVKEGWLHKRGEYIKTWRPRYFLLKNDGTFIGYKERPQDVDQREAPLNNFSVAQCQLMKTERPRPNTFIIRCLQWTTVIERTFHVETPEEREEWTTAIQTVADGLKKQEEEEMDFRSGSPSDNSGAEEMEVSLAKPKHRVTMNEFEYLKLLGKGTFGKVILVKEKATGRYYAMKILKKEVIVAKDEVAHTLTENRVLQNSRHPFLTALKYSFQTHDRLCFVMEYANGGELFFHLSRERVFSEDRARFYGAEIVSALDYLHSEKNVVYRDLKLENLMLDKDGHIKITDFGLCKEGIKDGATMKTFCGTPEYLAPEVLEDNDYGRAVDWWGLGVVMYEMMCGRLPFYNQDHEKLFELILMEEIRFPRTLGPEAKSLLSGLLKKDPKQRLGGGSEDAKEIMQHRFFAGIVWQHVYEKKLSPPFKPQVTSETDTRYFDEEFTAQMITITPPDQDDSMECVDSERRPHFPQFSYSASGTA

Structure (SMILES)	IC50 (GST-Chk1 enzyme)	IC50 [1]	IC50 (PDK1)	IC50 (Akt1)	IC50 (PKA)
Cc1[nH]nc(-c2nc3ccc(C(=O)NC4CCCC4)cc3[nH]2)c1C(=O)NC1CCNCC1 [Example 7, 2-[5-Methyl-4-(piperidin-4-ylcarbamoyl)-1H-pyrazol-3-yl]-3H-benzimidazole-5-carboxylic Acid Cyclopentylamide]	0.043 µM	9.24 µM	0.07 µM	28.6 µM	12.6 µM
Cc1[nH]nc(-c2nc3cc4ccccc4cc3[nH]2)c1C(=O)NCC1CCCNC1 (stereo not drawn) [Example 28]	0.008 µM	8.5 µM	0.125 µM	> 50 µM	8.99 µM
Cc1[nH]nc(-c2nc3ccc(C(F)(F)F)cc3[nH]2)c1C(=O)NC1CCNCC1 [Example 38]	0.058 µM	19.3 µM	0.032 µM	> 10 µM	16.9 µM
Cc1cc2nc(-c3n[nH]c(C)c3C(=O)NC3CCCNC3)[nH]c2cc1C (stereo not drawn) [Example 2, 3-(5,6-Dimethyl-1H-benzoimidazol-2-yl)-5-methyl-1H-pyrazole-4-carboxylic Acid piperidin-3-ylamide]	0.055 µM	3.6 µM	0.219 µM	15.9 µM	7.84 µM
Cc1[nH]nc(-c2nc3cc(C(=O)NC(C)C)ccc3[nH]2)c1C(=O)NC1CCNCC1 [Example 24]	0.036 µM	6.42 µM	0.046 µM	34.5 µM	10.7 µM
Cc1[nH]nc(-c2nc3ccc(C(F)(F)F)cc3[nH]2)c1C(=O)NCC1CCCNC1 (stereo not drawn) [Example 39]	0.049 µM	> 50 µM	0.086 µM	> 10 µM	> 50 µM
Cc1[nH]nc(-c2nc3ccc(C(C)(C)C)cc3[nH]2)c1C(=O)N[C@@H]1CN2CCC1CC2 [Example 41]	0.025 µM	> 50 µM	0.052 µM	> 10 µM	2.12 µM
Cc1[nH]nc(-c2nc3ccc(NC(=O)C(C)C)cc3[nH]2)c1C(=O)NC1CCN(C)CC1 [Example 21]	0.006 µM	21.3 µM	0.074 µM	> 50 µM	13.1 µM
Cc1[nH]nc(-c2nc3ccccc3[nH]2)c1C(=O)NCCCN [Example 4, 3-(1H-Benzoimidazol-2-yl)-5-methyl-1H-pyrazole-4-carboxylic Acid (3-amino-propyl)-amide]	0.031 µM	39.8 µM	0.212 µM	> 50 µM	20.7 µM
Cc1[nH]nc(-c2nc3cc(Cl)c(Cl)cc3[nH]2)c1C(=O)NC1CCNCC1 [Example 15]	0.295 µM	4.77 µM	0.123 µM	> 50 µM	8.85 µM
Cc1[nH]nc(-c2nc3ccc(C(=O)NCC(C)c4ccccc4)cc3[nH]2)c1C(=O)NC1CCNCC1 (stereo not drawn) [Example 32]	0.003 µM	15.6 µM	0.036 µM	18.1 µM	6.5 µM
Cc1[nH]nc(-c2nc3cc(C#N)ccc3[nH]2)c1C(=O)NC1CCNCC1 [Example 18]	0.137 µM	12.2 µM	0.311 µM	> 50 µM	22.6 µM
Cc1[nH]nc(-c2nc3ccccc3[nH]2)c1C(=O)NC1CCN(C)CC1 [Example 30]	0.0635 µM	2.21 µM	0.139 µM	11.8 µM	20.2 µM
Cc1[nH]nc(-c2nc3ccc(C(C)C)cc3[nH]2)c1C(=O)N[C@@H]1CN2CCC1CC2 [Example 43]	0.026 µM	14.7 µM	0.022 µM	> 10 µM	2.02 µM
Cc1[nH]nc(-c2nc3ccc(C(C)C)cc3[nH]2)c1C(=O)NC1CCN(C)CC1 [Example 46]	0.014 µM	24.2 µM	0.036 µM	> 10 µM	3.8 µM
Cc1[nH]nc(-c2nc3ccccc3[nH]2)c1C(=O)NCC1CCNCC1 [Example 9]	0.208 µM	47 µM	0.129 µM	11.1 µM	7.51 µM
Cc1[nH]nc(-c2nc3ccc(-c4cc5ccccc5[nH]4)cc3[nH]2)c1C(=O)NC1CCNCC1 [Example 8, 3-[6-(1H-Indol-2-yl)-1H-benzimidazo-2-yl]-5-methyl-1H-pyrazole-4-carboxylic Acid piperidin-4-ylamide]	0.012 µM	2.8 µM	0.019 µM	5.84 µM	1.34 µM
Cc1[nH]nc(-c2nc3ccccc3[nH]2)c1C(=O)NCCCCN [Example 16]	0.213 µM	43.5 µM	0.249 µM	> 50 µM	20.7 µM
O=C(NC1CCNCC1)c1c[nH]nc1-c1nc2ccccc2[nH]1 [Example 20]	0.252 µM	6.36 µM	0.323 µM	> 50 µM	32.1 µM
Cc1cc2nc(-c3n[nH]c(C)c3C(=O)NC3CCCN(C)C3)[nH]c2cc1C (stereo not drawn) [Example 3, 3-(5,6-Dimethyl-1H benzoimidazole-2-yl)-5-methyl-1H-pyrazole-4-carboxylic Acid (1-methyl-piperidin-3-yl)-amide]	0.077 µM	30.9 µM	0.44 µM	41.3 µM	23.4 µM
Cc1[nH]nc(-c2nc3cc4nc[nH]c4cc3[nH]2)c1C(=O)NC1CCNCC1 [Example 11]	0.088 µM	38.9 µM	0.12 µM	> 50 µM	7.77 µM
